target: human Autotaxin protein (Homo sapiens, UniProt Q13822); assay: Evaluation of the inhibitory activity against human Autotaxin protein (18:1 LysoPC substrate, choline assay kit, absorbance at 570 nm); type: biochemical; conditions: at 500nM compound, 2 hours at 37 °C, read-out: Inhibition rate (%, at 500nM)
Protocol: Solutions of each synthesized compound (80 uM, 100% dimethyl sulfoxide) were sequentially diluted 5-fold with dimethyl sulfoxide to prepare 6 concentrations. Each concentration of the compound was diluted 2-fold with 1x test buffer (50 mM Tris-Cl (pH 8.0), 5 mM KCl, 1 mM CaCl2, 1 mM MgCl2, 140 mM NaCl, deionized water, 1 mg/mL BSA), and 1 uL (1.25% dimethylsulfoxide) of the diluted mixture was dispensed into each well of a 96-well clear round-bottom plate. 9 uL of 1x test buffer was added, and 20 uL of 240 nM human autotaxin protein (buffer: 50 mM Tris-HCl, pH 8.0, with 150 mM sodium chloride and 20% glycerol) was added. 10 uL of sonicated 360 uM 18:1 LysoPC (diluted with 1x assay buffer) was added. The reaction was performed for 2 hours in a shaking incubator at 37 °C, and a secondary reaction mixture (choline assay kit, KA1662) (65 uL of 1x assay buffer: 1 uL of choline oxidase: 1 uL of dye probe) was prepared. 60 uL of the secondary reaction mixture was added to the plate where the reaction was performed, and incubated for 30 minutes in a shaker. The absorbance value was measured at a wavelength of 570 nm using a SpectraMax iD3 microplate reader. The percentage inhibition activity value (% inhibition) was calculated by the formula: (1 - absorbance value test group / absorbance value control group) X 100.

Row | SMILES | inhibition at 0.5 µM
1 | c1cc2c(cc1CNc1ncc(-c3nnc(N4C[C@@H]5[C@H](C4)[C@H]5c4cnn[nH]4)o3)cn1)OCO2 [Example 9, 5-(5-((1R,5S,6r)-6-(1H-1,2,3-Triazol-5-yl)-3-azabicyclo[3.1.0]hexan-3-yl)-1,3,4-oxadiazol-2-yl)-N-(benzo[d][1,3]dioxol-5-ylmethyl)pyrimidin-2-amine] | 40.6%
2 | Clc1ccc(CNc2ncc(-c3nnc(N4C[C@@H]5[C@H](C4)[C@H]5c4cnn[nH]4)o3)cn2)cc1Cl [Example 6, 5-(5-((1R,5S,6r)-6-(1H-1,2,3-Triazol-5-yl)-3-azabicyclo[3.1.0]hexan-3-yl)-1,3,4-oxadiazol-2-yl)-N-(3,4-dichlorobenzyl)pyrimidin-2-amine] | 68.9%
3 | CN(CCc1ccc(Cl)cc1)c1ncc(-c2nnc(N3C[C@@H]4[C@H](C3)[C@H]4c3cnn[nH]3)o2)cn1 [Example 37, 5-(5-((1R,5S,6r)-6-(1H-1,2,3-Triazol-5-yl)-3-azabicyclo[3.1.0]hexan-3-yl)-1,3,4-oxadiazol-2-yl)-N-(4-chlorophenethyl)-N-methylpyrimidin-2-amine] | 91.7%
4 | c1ccc(CCNc2ncc(-c3nnc(N4C[C@@H]5[C@H](C4)[C@H]5c4cnn[nH]4)o3)cn2)cc1 [Example 11, 5-(5-((1R,5S,6r)-6-(1H-1,2,3-Triazol-5-yl)-3-azabicyclo[3.1.0]hexan-3-yl)-1,3,4-oxadiazol-2-yl)-N-phenethylpyrimidin-2-amine] | 85.3%
5 | O=C(/C=C/c1cnc(NC2Cc3ccccc3C2)nc1)N1C[C@@H]2[C@H](C1)[C@H]2c1cnn[nH]1 [Example 46, (E)-1-((1R,5S,6r)-6-(1H-1,2,3-Triazol-5-yl)-3-azabicyclo[3.1.0]hexan-3-yl)-3-(2-((2,3-dihydro-1H-inden-2-yl)amino)pyrimidin-5-yl)prop-2-en-1-one] | 99.4%
6 | Cc1nc(NCCc2ccc(Cl)cc2)ncc1-c1nnc(N2C[C@@H]3[C@H](C2)[C@H]3c2cnn[nH]2)o1 [Example 40, 5-(5-((1R,5S,6r)-6-(1H-1,2,3-Triazol-5-yl)-3-azabicyclo[3.1.0]hexan-3-yl)-1,3,4-oxadiazol-2-yl)-N-(4-chlorophenethyl)-4-methylpyrimidin-2-amine] | 92.3%
7 | COc1ccc(CCNc2ncc(-c3nnc(N4C[C@@H]5[C@H](C4)[C@H]5c4cnn[nH]4)o3)cn2)cc1 [Example 30, 5-(5-((1R,5S,6r)-6-(1H-1,2,3-Triazol-5-yl)-3-azabicyclo[3.1.0]hexan-3-yl)-1,3,4-oxadiazol-2-yl)-N-(4-methoxyphenethyl)pyrimidin-2-amine] | 95.7%
8 | O=C(CCc1nnc(NC2Cc3ccccc3C2)s1)N1C[C@@H]2[C@H](C1)[C@H]2c1cnn[nH]1 [Example 39, 1-((1R,5S,6r)-6-(1H-1,2,3-Triazol-5-yl)-3-azabicyclo[3.1.0]hexan-3-yl)-3-(5-((2,3-dihydro-1H-inden-2-yl)amino)-1,3,4-thiadiazol-2-yl)propan-1-one] | 59.7%
9 | Clc1ccc(CCNc2ncc(C3CC(N4C[C@@H]5[C@H](C4)[C@H]5c4cnn[nH]4)=NO3)cn2)cc1 (stereo partly drawn) [Example 49, 5-(3-((1R,5S,6r)-6-(1H-1,2,3-Triazol-5-yl)-3-azabicyclo[3.1.0]hexan-3-yl)-4,5-dihydroisoxazol-5-yl)-N-(4-chlorophenethyl)pyrimidin-2-amine] | 76.4%

Other lines, results leading:

Row | inhibition at 0.5 µM | SMILES
10 | 98.6% | c1ccc2c(c1)CC(Nc1ncc(-c3nnc(N4C[C@@H]5[C@H](C4)[C@H]5c4cnn[nH]4)o3)cn1)C2 [Example 16, 5-(5-((1R,5S,6r)-6-(1H-1,2,3-Triazol-5-yl)-3-azabicyclo[3.1.0]hexan-3-yl)-1,3,4-oxadiazol-2-yl)-N-(2,3-dihydro-1H-inden-2-yl)pyrimidin-2-amine]
11 | 73.1% | Clc1ccc(CNc2ncc(-c3nnc(N4C[C@@H]5[C@H](C4)[C@H]5c4cnn[nH]4)o3)cn2)cc1 [Example 3, 5-(5-((1R,5S,6r)-6-(1H-1,2,3-Triazol-5-yl)-3-azabicyclo[3.1.0]hexan-3-yl)-1,3,4-oxadiazol-2-yl)-N-(4-chlorobenzyl)pyrimidin-2-amine]
12 | 91.6% | FC(F)(F)c1cc(CNc2ncc(-c3nnc(N4C[C@@H]5[C@H](C4)[C@H]5c4cnn[nH]4)o3)cn2)cc(C(F)(F)F)c1 [Example 10, 5-(5-((1R,5S,6r)-6-(1H-1,2,3-Triazol-5-yl)-3-azabicyclo[3.1.0]hexan-3-yl)-1,3,4-oxadiazol-2-yl)-N-(3,5-bis(trifluoromethyl)benzyl)pyrimidin-2-amine]
13 | 88.5% | Clc1cccc(CNc2ncc(-c3nnc(N4C[C@@H]5[C@H](C4)[C@H]5c4cnn[nH]4)o3)cn2)c1 [Example 2, 5-(5-((1R,5S,6r)-6-(1H-1,2,3-Triazol-5-yl)-3-azabicyclo[3.1.0]hexan-3-yl)-1,3,4-oxadiazol-2-yl)-N-(3-chlorobenzyl)pyrimidin-2-amine]
14 | 87.6% | Brc1ccc2c(c1)CC(Nc1ncc(-c3nnc(N4C[C@@H]5[C@H](C4)[C@H]5c4cnn[nH]4)o3)cn1)C2 (stereo partly drawn) [Example 18, 5-(5-((1R,5S,6r)-6-(1H-1,2,3-Triazol-5-yl)-3-azabicyclo[3.1.0]hexan-3-yl)-1,3,4-oxadiazol-2-yl)-N-(5-bromo-2,3-dihydro-1H-inden-2-yl)pyrimidin-2-amine]
15 | 98.7% | O=C(/C=C/c1cnc(NCCc2ccc(Cl)cc2)nc1)N1C[C@@H]2[C@H](C1)[C@H]2c1cnn[nH]1 [Example 45, (E)-1-((1R,5S,6r)-6-(1H-1,2,3-Triazol-5-yl)-3-azabicyclo[3.1.0]hexan-3-yl)-3-(2-((4-chlorophenethyl)amino)pyrimidin-5-yl)prop-2-en-1-one]
16 | 91.9% | O=C(CCc1cnc(NC2Cc3ccccc3C2)nc1)N1C[C@@H]2[C@H](C1)[C@H]2c1cnn[nH]1 [Example 19, 1-((1R,5S,6r)-6-(1H-1,2,3-Triazol-5-yl)-3-azabicyclo[3.1.0]hexan-3-yl)-3-(2-((2,3-dihydro-1H-inden-2-yl)amino)pyrimidin-5-yl)propan-1-one]
17 | 88.5% | FC(F)(F)c1ccc(CNc2ncc(-c3nnc(N4C[C@@H]5[C@H](C4)[C@H]5c4cnn[nH]4)o3)cn2)cc1 [Example 20, 5-(5-((1R,5S,6r)-6-(1H-1,2,3-Triazol-5-yl)-3-azabicyclo[3.1.0]hexan-3-yl)-1,3,4-oxadiazol-2-yl)-N-(4-(trifluoromethyl)benzyl)pyrimidin-2-amine]
18 | 96.7% | Fc1cc2c(cc1F)CC(Nc1ncc(-c3nnc(N4C[C@@H]5[C@H](C4)[C@H]5c4cnn[nH]4)o3)cn1)C2 [Example 17, 5-(5-((1R,5S,6r)-6-(1H-1,2,3-Triazol-5-yl)-3-azabicyclo[3.1.0]hexan-3-yl)-1,3,4-oxadiazol-2-yl)-N-(5,6-difluoro-2,3-dihydro-1H-inden-2-yl)pyrimidin-2-amine]
19 | 86.4% | Fc1cc(F)cc(CNc2ncc(-c3nnc(N4C[C@@H]5[C@H](C4)[C@H]5c4cnn[nH]4)o3)cn2)c1 [Example 5, 5-(5-((1R,5S,6r)-6-(1H-1,2,3-Triazol-5-yl)-3-azabicyclo[3.1.0]hexan-3-yl)-1,3,4-oxadiazol-2-yl)-N-(3,5-difluorobenzyl)pyrimidin-2-amine]
20 | 66.3% | N#Cc1ccc(CNc2ncc(-c3nnc(N4C[C@@H]5[C@H](C4)[C@H]5c4cnn[nH]4)o3)cn2)cc1 [Example 24, 4-(((5-(5-((1R,5S,6r)-6-(1H-1,2,3-Triazol-5-yl)-3-azabicyclo[3.1.0]hexan-3-yl)-1,3,4-oxadiazol-2-yl)pyrimidin-2-yl)amino)methyl)benzonitrile]

Reference: patent EP4692083A1, “NOVEL AZABICYCLE DERIVATIVES AND PHARMACEUTICAL COMPOSITION FOR INHIBITING AUTOTAXIN, COMPRISING SAME” (Nextgen Bioscience Co., Ltd., priority 2023, dated 2024)
